According to patent publication US20160368895A1, “PULMONARY HYPERTENSION TREATING AGENT” (THE UNIVERSITY OF TOKYO, priority 2013, published 2016):

What was measured:
[1] = biological target: T1, human PGI2 receptors (hIP) (Homo sapiens, UniProt P43119); experiment: Method B: positive allosteric modulator activity, cAMP in CHO/hIP cells with 1 nM epoprostenol; format: cell-based; settings: cAMP relative to 1 nM epoprostenol alone
T1 construct: expressed in transfected cells; host or cells: CHO-K1
Protocol: The positive allosteric modulator activity of a test compound was measured as a change in the amount of intracellular cyclic AMP (cAMP) in the presence of 1 nM of the IP agonist epoprostenol (manufactured by GlaxoSmithKline), using CHO-K1 cells (CHO/hIP cells) in which human PGI2 receptors (hIP) are stably expressed.
An amount of 5 μL of a mixture (diluted in F-12 culture medium (manufactured by GIBCO) including 0.1% BSA) of epoprostenol dissolved in DMSO and a test compound dissolved in DMSO was dispensed in advance into a 384-well black microplate, and 5 μL of CHO/hIP cells suspended at a concentration of 1.4×10^6 cells/mL in F-12 culture medium including 0.1% BSA were added to the microplate. After 40 minutes of incubation at room temperature, the amount of cAMP was measured using a cAMP assay kit (cAMP HiRange, manufactured by Cisbio Bioassays). Specifically, 5 μL of a cAMP-d2 solution (including a cell lysate) from the kit were added and the reaction was stopped, then 5 μL of a fluorescence-labeled cAMP antibody solution from the kit were added and incubation was performed for 1 hour at room temperature, after which fluorescence was measured using a PHERAstar plate reader (manufactured by BMG) in HTRF (registered trademark) mode. The amount of cAMP in each well was calculated from a cAMP calibration curve obtained using a standard sample, and the activity of each test compound is noted below as a ratio T/C (%) based on the amount of cAMP for 1 nM of epoprostenol alone.

[2] = biological target: T1, human PGI2 receptors (hIP); experiment: Method C: effect on epoprostenol-cAMP production curve in CHO/hIP cells (left shift value); format: cell-based
Protocol: The effect of a test compound on the cAMP production curve with respect to the IP agonist epoprostenol (manufactured by GlaxoSmithKline) was investigated using CHO-K1 cells (CHO/hIP cells) in which human PGI2 receptors (hIP) are stably expressed.
An amount of 5 μL of a mixture (diluted in F-12 culture medium (manufactured by GIBCO) including 0.1% BSA) of epoprostenol dissolved in DMSO and a test compound dissolved in DMSO was dispensed in advance into a 384-well black microplate, and 5 μL of CHO/hIP cells suspended at a concentration of 1.4×10^6 cells/mL in F-12 culture medium including 0.1% BSA were added to the microplate. After 40 minutes of incubation at room temperature, the amount of cAMP was measured using a cAMP assay kit (cAMP HiRange, manufactured by Cisbio Bioassays). Specifically, 5 μL of a cAMP-d2 solution (including a cell lysate) from the kit were added and the reaction was stopped, then 5 μL of a fluorescence-labeled cAMP antibody solution from the kit were added and incubation was performed for 1 hour at room temperature, after which fluorescence was measured using a PHERAstar plate reader (manufactured by BMG) in HTRF (registered trademark) mode. The amount of cAMP in each well was calculated from a cAMP calibration curve obtained using a standard sample, and an epoprostenol-cAMP production curve for the presence of various concentrations of the test compound was created.

[3] = Table 4, concentration of test compound that halves the EC50 of epoprostenol
[4] = Table 5, concentration of test compound that halves the EC50 of epoprostenol

T1 sequence (P43119 whole entry): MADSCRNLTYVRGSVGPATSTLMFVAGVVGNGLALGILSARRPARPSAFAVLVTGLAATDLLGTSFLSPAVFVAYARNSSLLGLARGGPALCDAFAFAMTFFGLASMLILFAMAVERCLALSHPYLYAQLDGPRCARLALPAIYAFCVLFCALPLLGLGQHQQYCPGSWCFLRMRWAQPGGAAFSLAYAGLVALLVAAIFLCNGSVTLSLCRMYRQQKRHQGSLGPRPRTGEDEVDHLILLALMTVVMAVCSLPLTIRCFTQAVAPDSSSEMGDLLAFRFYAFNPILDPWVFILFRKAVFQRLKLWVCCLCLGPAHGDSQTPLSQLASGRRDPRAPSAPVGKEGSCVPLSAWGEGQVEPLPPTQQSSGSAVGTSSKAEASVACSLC

| Structure (SMILES) | T/C ([1]; test concentration 10 uM) | left shift value [2, 3] | T/C ([1]; test concentration 5 uM) | left shift value [2, 4] |
| --- | --- | --- | --- | --- |
| CC(C)(C)n1nnnc1C(c1ccccc1OCc1ccccc1)N1CCc2ccccc2C1 (stereo not shown) [Example 1, 2-((2-(benzyloxy)phenyl)(1-tert-butyl-1H-tetrazol-5-yl)methyl)-1,2,3,4-tetrahydroisoquinoline] | 151.7% | 24.9 µM | – | – |
| CC(C)(C)n1nnnc1C(c1ccccc1Br)N1CCc2ccccc2C1 (stereo not shown) [Example 2] | 152.5% | 15.5 µM | – | – |
| Cc1ccc(C(c2nnnn2C(C)(C)C)N2CCc3ccccc3C2)cc1 (stereo not shown) [Example 3] | – | 71.4 µM | 100.6% | – |
| CC(C)(C)n1nnnc1C(c1ccc(Br)cc1)N1CCc2ccccc2C1 (stereo not shown) [Example 4] | – | 35.7 µM | 100.1% | – |
| CC(C)(C)n1nnnc1C(c1ccc(O)cc1)N1CCc2ccccc2C1 (stereo not shown) [Example 5] | 156.4% | 10.9 µM | – | – |
| CC(C)(C)n1nncc1C(c1ccc(C(F)(F)F)cc1)N1CCc2ccccc2C1 (stereo not shown) [Example 6] | 93.7% | – | – | – |
| CC(C)(C)n1nnnc1C1c2ccc(F)cc2SC2Cc3ccccc3CN21 (stereo not shown) [Example 7] | 127.6% | 24.1 µM | – | – |
| COc1ccc(C(c2nnnn2C(C)(C)C)N2CCc3ccccc3C2)c(F)c1 (stereo not shown) [Example 8] | 184.2% | 7.2 µM | – | – |
| Cc1ccc(C(c2nnnn2C(C)(C)C)N2CCc3ccccc3C2)cc1 (stereo not shown) [Example 9] | 153.2% | 13.4 µM | – | – |
| CC(C)(C)n1nnnc1C(c1ccc(Cl)cc1)N1CCc2ccccc2C1 (stereo not shown) [Example 10] | 117.0% | 110.9 µM | – | – |
| Cc1ccccc1C(c1nnnn1C(C)(C)C)N1CCc2ccccc2C1 (stereo not shown) [Example 11] | 95% | – | – | – |
| COc1ccc(C(c2nnnn2C(C)(C)C)N2CCc3ccccc3C2)c(OC)c1 (stereo not shown) [Example 12] | 155.2% | 10.4 µM | – | – |
| CSc1ccccc1C(c1nnnn1C(C)(C)C)N1CCc2ccccc2C1 (stereo not shown) [Example 13] | 218.3% | 3.1 µM | – | – |
| COc1ncccc1C(c1nnnn1C(C)(C)C)N1CCc2ccccc2C1 (stereo not shown) [Example 14] | 132.1% | 17.7 µM | – | – |
| COc1cccc(C(c2nnnn2C(C)(C)C)N2CCc3ccccc3C2)c1 (stereo not shown) [Example 15] | 122.4% | 32.4 µM | – | – |
| CC(C)(C)n1nnnc1C(c1ccccc1F)N1CCc2ccc(Cl)cc2C1 (stereo not shown) [Example 16] | 104.6% | 232.2 µM | – | – |
| CC(C)(C)n1nnnc1C(c1ccccc1Br)N1CCc2ccc(Cl)cc2C1 (stereo not shown) [Example 17] | – | – | 87% | – |
| CC(C)(C)n1nnnc1C(c1ccccc1N=O)N1CCc2ccc(Cl)cc2C1 (stereo not shown) [Example 18] | 94.1% | – | – | – |
| Cc1ccccc1C(c1nnnn1C(C)(C)C)N1CCc2ccc(Cl)cc2C1 (stereo not shown) [Example 19] | – | – | 90% | – |
| COc1ccccc1C(c1nnnn1C1C2CC3CC(C2)CC1C3)N1CCc2ccccc2C1 (stereo not shown) [Example 20] | – | 11.1 µM | 126.3% | – |
| COc1ccccc1C(c1nnnn1C1(C)CCCCC1)N1CCc2ccccc2C1 (stereo not shown) [Example 21] | 229.7% | 2.0 µM | – | – |
| COc1ccccc1C(c1nnnn1C1(C)CCCC1)N1CCc2ccccc2C1 (stereo not shown) [Example 22] | 149.6% | 8.3 µM | – | – |

| Structure (SMILES) | T/C ([1]; test concentration 10 uM) | left shift value [2, 3] | T/C ([1]; test concentration 5 uM) | left shift value [2, 4] |
| --- | --- | --- | --- | --- |
| COc1cc2ccccc2cc1C(c1nnnn1C(C)(C)C)N1CCc2ccccc2C1 (stereo not shown) [Example 23] | 106.4% | 119.6 µM | – | – |
| CC(C)(C)n1nnnc1C(c1cc2ccccc2[nH]1)N1CCc2ccccc2C1 (stereo not shown) [Example 40] | 89.3% | – | – | – |
| CC1(n2nnnc2C(c2ccccc2)N2CCc3ccccc3C2)CCCCC1 (stereo not shown) [Example 41] | – | – | 116.3% | – |
| COc1ccccc1C(C)(c1nnnn1C(C)(C)C)N1CCc2ccccc2C1 (stereo not shown) [Example 48] | 72.3% | – | – | – |
| CC(C)(C)n1nnnc1C(c1cc2ccccc2s1)N1CCc2ccccc2C1 (stereo not shown) [Example 49] | 104.7% | – | – | – |
| CC(C)(C)n1nnnc1C(c1cc2ccccc2o1)N1CCc2ccccc2C1 (stereo not shown) [Example 50] | 105.0% | – | – | – |
| COc1ccc(C(c2nnnn2C(C)(C)C)N2CCc3sccc3C2)cc1 (stereo not shown) [Example 63, 5-((1-(tert-butyl)-1H-tetrazol-5-yl)(4-methoxyphenyl)methyl)-4,5,6,7-tetrahydrothieno[3,2-c]pyridine] | – | – | – | 34.9 µM |
| CC(C)(C)n1nnnc1C(c1ccccc1Br)N1CCc2sccc2C1 (stereo not shown) [Example 65, 5-((2-bromophenyl)(1-(tert-butyl)-1H-tetrazol-5-yl)methyl)-4,5,6,7-tetrahydrothieno[3,2-c]pyridine] | – | – | – | 66.2 µM |
| CC(C)(C)n1nnnc1C(c1ccc[nH]1)N1CCc2sccc2C1 (stereo not shown) [Example 66, 5-((1-(tert-butyl)-1H-tetrazol-5-yl)(1H-pyrrol-2-yl)methyl)-4,5,6,7-tetrahydrothieno[3,2-c]pyridine] | – | – | – | 84.5 µM |
| CC(C)(C)n1nnnc1C(c1ccsc1)N1CCc2sccc2C1 (stereo not shown) [Example 68, 5-((1-(tert-butyl)-1H-tetrazol-5-yl)(thiophen-3-yl)methyl)-4,5,6,7-tetrahydrothieno[3,2-c]pyridine] | – | – | – | 15.5 µM |
| CC(C)(C)n1nnnc1C(c1ccccc1F)N1CCc2sccc2C1 (stereo not shown) [Example 69, 5-((1-(tert-butyl)-1H-tetrazol-5-yl)(2-fluorophenyl)methyl)-4,5,6,7-tetrahydrothieno[3,2-c]pyridine] | – | – | – | 20.6 µM |
| CSc1ccccc1C(c1nnnn1C(C)(C)C)N1CCc2sccc2C1 (stereo not shown) [Example 70, 5-((1-(tert-butyl)-1H-tetrazol-5-yl)(2-(methylthio)phenyl)methyl)-4,5,6,7-tetrahydrothieno[3,2-c]pyridine] | – | – | – | 14.8 µM |
| CC1(n2nnnc2C(c2ccccc2O)N2CCc3ccccc3C2)CCCCC1 (stereo not shown) [Example 71, 2-((3,4-dihydroisoquinolin-2(1H)-yl)-(1-(1-methylcyclohexyl)-1H-tetrazol-5-yl)methyl)phenol] | – | – | – | 2.3 µM |
| COc1ccsc1C(c1nnnn1C(C)(C)C)N1CCc2sccc2C1 (stereo not shown) [Example 72, 5-((1-(tert-butyl)-1H-tetrazol-5-yl)(3-methoxythiophen-2-yl)methyl)-4,5,6,7-tetrahydrothieno[3,2-c]pyridine] | – | – | – | 3.2 µM |
| CC(C)(C)n1nnnc1C(c1nccs1)N1CCc2ccccc2C1 (stereo not shown) [Example 73, 2-((1-(tert-butyl)-1H-tetrazol-5-yl)(3,4-dihydroisoquinolin-2(1H)-yl)methyl)thiazole] | – | – | – | 44.6 µM |
| CC1(n2nnnc2C(c2cccs2)N2CCc3sccc3C2)CCCCC1 (stereo not shown) [Example 74, 5-((1-(1-methylcyclohexyl)-1H-tetrazol-5-yl)(thiophen-2-yl)methyl)-4,5,6,7-tetrahydrothieno[3,2-c]pyridine] | – | – | – | 8.6 µM |
| COc1ccsc1C(c1nnnn1C1(C)CCCCC1)N1CCc2sccc2C1 (stereo not shown) [Example 75, 5-((3-methoxythiophen-2-yl)(1-(1-methylcyclohexyl)-1H-tetrazol-5-yl)methyl)-4,5,6,7-tetrahydrothieno[3,2-c]pyridine] | – | – | – | 2.1 µM |
| COc1ccccc1C(c1nnnn1C1(C)CCCCC1)N1CCc2sccc2C1 (stereo not shown) [Example 76, 5-((2-methoxyphenyl)(1-(1-methylcyclohexyl)-1H-tetrazol-5-yl)methyl)-4,5,6,7-tetrahydrothieno[3,2-c]pyridine] | – | – | – | 7.2 µM |
| COc1c(F)cccc1C(c1nnnn1C(C)(C)C)N1CCc2ccccc2C1 (stereo not shown) [Example 80, 2-((1-(tert-butyl)-1H-tetrazol-5-yl)(3-fluoro-2-methoxyphenyl)methyl)-1,2,3,4-tetrahydroisoquinoline] | – | – | – | 26.5 µM |
| COc1ccccc1C(c1nnnn1C(C)(C)C)N1CCC2CCCCC2C1 (stereo not shown) [Example 82, 2-((1-(tert-butyl)-1H-tetrazol-5-yl)(2-methoxyphenyl)methyl)deca-hydroisoquinoline] | – | – | – | 6.2 µM |
| CC1(n2nnnc2C(c2cccc(F)c2O)N2CCc3ccccc3C2)CCCCC1 (stereo not shown) [Example 83] | – | – | – | 25.0 µM |
